Like-named read-outs stand apart in the source and are kept apart here.
Assays:
LUHMES cells [1] = assay: Intracellular ATP content after NeuriTox exposure; assay type: cell-based; conditions: Homo sapiens; NeuriTox exposure scheme, 24 h; read-out: LUHMES 24 h EC25 ATP (converted)
Protocol: (§1) The NeuriTox test was performed as previously described (Delp et al. [2018b]; Krug et al. [2013a]; Stiegler et al. [2011]). Briefly, cells differentiated for 48 h were re-seeded into 96-well plates at a density of 100,000 cells/cm^2 in DM without cAMP and GDNF, and treated 1 h after seeding for 24 h. Subsequently, multiple endpoints were determined, e.g., neurite outgrowth (i.e., NeuriTox test), resazurin reduction, intracellular ATP content, gene expression levels from TempO-Seq analysis, and proteasomal activity. For the 120 h exposure scenario, LUHMES cells were differentiated for another 3 days after reseeding before they were treated on day 5 (d5) and d7 by a half medium exchange. Endpoints were determined on d10 of differentiation.
Plates from the NeuriTox test were further used after imaging for determination of alternative endpoints. Intracellular ATP was determined as described earlier (Delp et al. [2019]). In brief, CellTiterGlo 2.0 assay mix (Promega) containing luciferase was added after imaging, and luminescence was recorded. For the determination of resazurin reduction, a 10 × resazurin stock solution was added after imaging to the medium (final resazurin concentration 2 µg/ml) (Delp et al. [2018a]). After 60 min incubation, resazurin fluorescence was recorded (ex: 530 nm, em: 590 nm). Background-corrected data was used for further analysis.

LUHMES cells [2] = assay: NeuriTox test: neurite area and viability, 24 h; assay type: cell-based, human; conditions: for EC25: Homo sapiens
Protocol: as §1
Image acquisition and analysis was performed as described previously (Krug et al. [2013a]; Schildknecht et al. [2013]; Stiegler et al. [2011]). In brief, cells were live-stained with 1 µg/ml Hoechst H-33342 and 1 µM calcein-AM and image acquisition was done by an automated high content imager (Cellomics, Waltham, MA, USA). Cell viability was determined as ratio of live cells (cell bodies being Calcein- and Hoechst-positive) relative to the total amount of cells (Hoechst-positive cell bodies). Neurite area was calculated by subtracting the somatic area (Hoechst-positive area plus surrounding) from the calcein-positive area.

U2OS cells = assay: cells; assay type: cell-based; conditions: Homo sapiens; U2OS osteosarcoma cells, 24 h, luminescence of constitutively expressed luciferase; read-out: Cytotox EC25 U2OS (converted)
Protocol: A cell suspension of 100,000 cells/ml was prepared in assay medium, and white 384-well plates were filled with 30 µl/well cell suspension. Twenty-four hours after seeding, a dilution series of test compound, as well as positive and negative controls, were added to the cells. After 24 h exposure, the medium was removed, and 10 µl of Triton X-100 lysis buffer was added to each well. The luminescent signal was determined in a luminometer by injecting BDS Illuminate Mix and measuring the light emission. The Cytotox CALUX cell line constitutively expresses a high level of luciferase protein; the light emission is therefore proportional to the cell number of live cells, and its decrease can be used as measure of cytotoxicity. The light emission generated by cells exposed to vehicle control was set to 100%, and the luminescence of cells exposed to the positive control toxicant tributyltin acetate [100 µM] was set to 0%. The light output of the cells exposed to different concentrations of test compounds was scaled accordingly.

HepG2 cells = assay: HepG2-based respirometry, total cell respiration (earlier study); conditions: NeuriTox neurite EC25 relative to cell respiration EC25; respirometric data from HepG2-based assays ref van der Stel et al. 2020
SH-SY5Y cells = assay: Mitochondrial membrane potential (rhodamine 123), KE2 assay; assay type: cell-based, human; conditions: for Ratios of EC25 KE4/KE2 MMP: NeuriTox neurite EC25 relative to SH-SY5Y MMP EC25
Protocol: Cells were plated at a cell density of 29,500 cells/cm^2 and handled as described above for the neurite SH-SY5Y degeneration. On d6 of differentiation, 50% of the medium was replaced by differentiation medium containing 2 µM Rhodamine 123 (ThermoFisher). After 45 min of preloading at 37 °C with 5% CO2 in darkness, the Rhodamine 123 solution was completely removed and cells were carefully washed once with 200 µl DMEM:F12. Subsequently, 50 µl differentiation medium per well were added followed by the addition of 50 µl/well of test compounds in medium. After 24 h of exposure to the test compounds, the nuclei were stained for 30 min with 20 µL of a solution containing 20 µM Hoechst 33342, and the images were then acquired with a 10 × objective lens using the ImageXpress® Micro (Molecular Devices) high content microplate imager. Nuclei were evaluated in the DAPI channel (excitation 377 ± 50 nm, emission 447 ± 60 nm), whereas Rhodamine 123 fluorescence was detected in the FITC channel (excitation 475 ± 34 nm, emission 536 ± 40 nm). Analysis of the Hoechst 33,342 and Rhodamine 123 fluorescence was performed using the MetaXpress® Software (Molecular Devices) with the Transfluor HT plug-in and the parameters nuclei (for Hoechst-33342) and integrated granule intensity (for Rhodamine 123). Mitochondrial membrane potential (MMP) was quantified as the total fluorescence intensity of Rhodamine 123 in relation to the number of Hoechst-stained nuclei.

LUHMES cells [3] = assay type: cell-based, human; conditions: 24 h, vs 0.1% DMSO; for log2FoldChange AARS: gene AARS; for log2FoldChange AASDHPPT: gene AASDHPPT; for log2FoldChange AATF: gene AATF; for log2FoldChange ABCA1: gene ABCA1; for log2FoldChange ABCA6: gene ABCA6
Protocol: Cells were cultured and treated as described above for the NeuriTox assay. On d3, after 24 h treatment, culture medium was replaced by 33 µl/well 1 × Biospyder lysis buffer. After 15 min at room temperature, plates were sealed and frozen at -80 °C to complete lysis. Samples were analyzed at Bioclavis (Glasgow) using the TempO-Seq technique and the EU-ToxRisk v2.0 gene probe panel covering ca. 3000 genes (Yeakley et al. [2017]). All genes are listed in the supplementary excel file (containing also all gene regulations). Briefly, a 50 bp fragment of the target gene was amplified. The amplification step also introduced sample-specific barcodes. This allowed pooling of all samples and standard next-generation sequencing of the ensemble. Afterward, adapters were used to allocate the sequenced fragments to the correct samples. Finally, the alignment of all sequenced fragments (FASTQ files) for each sample to the collection of reference 50 bp oligonucleotides was performed for the quantification of reads per gene, also known as the read count values. In a pre-filtering step, samples with a total count < 0.2 million and genes with an average count < 1.5 were removed.
To correct for both read depth and RNA composition, the DESeq2′s median of ratios normalization was applied. The analysis of differentially expressed genes (DEG) of each treatment against the control group was done by the Wald test implemented in DESeq2/R (Love et al. [2014]), including an FDR correction for p-adjusted ≤ 0.05. […] A curve was fit through these concentration–response data to obtain EC10DEG. For comparability, all DEG data were normalized to a positive control. […] The EC10DEG was calculated using an established online open access BMC calculator (BMCeasy) (Krebs et al. [2020]).

[4] = tested on: MRC complex (cI, cII or cIII); assay: HepG2-based MRC complex assay in permeabilized cells (earlier study); assay type: cell-based; conditions: NeuriTox neurite EC25 relative to complex assay EC25 in permeabilized cells; respirometric data from HepG2-based assays ref van der Stel et al. 2020
proteasome = assay: Proteasomal activity (KE3 assay) in LUHMES cells; assay type: cell-based, human; conditions: NeuriTox neurite EC25 relative to proteasomal activity EC25, LUHMES
Protocol: Activity of the proteasome was quantified as described in (Gutbier et al. [2018b]). Briefly, after exposure, culture medium was replaced by assay buffer containing a cell-permeable proteasomal substrate (MeOSuc-Gly-Leu-Phe-AMC, 25 µM (Bachem, Bubendorf, Switzerland) in HBSS). Its AMC-fluorescence (ex: 360 nm, em: 465 nm) increases with proteasomal activity and was monitored for 90 min. Background-corrected data were used for further analysis.

[5] = NeuriTox exposure scheme, 24 h, read-out: LUHMES 24 h EC25 NA (neurite area) (converted)
[6] = NeuriTox exposure scheme, 24 h, read-out: LUHMES 24 h EC25 V (viability) (converted)
[7] = NeuriTox test, neurite outgrowth impairment, LUHMES 24 h

Row | SMILES | EC25 (LUHMES cells [1]) [µM] | EC25 (LUHMES cells [2]; [5]) [µM] | EC25 (LUHMES cells [2]; [6]) [µM] | EC25 (U2OS cells) [µM] | Ratios of EC25 KE4/KE1 total respiration (HepG2 cells) | Ratios of EC25 KE4/KE2 MMP (SH-SY5Y cells) | Ratios of EC25 KE4/KE1 complex assay [4] | also measured
1 | CC(C)Oc1cccc(NC(=O)c2ccccc2C(F)(F)F)c1 [Flutolanil] | 79.4 | 79.4 | > 100 | > 100 | – | – | – | –
2 | CSC1=N[C@@](C)(c2ccccc2)C(=O)N1Nc1ccccc1 [Fenamidone] | > 50.1 | > 50.1 | > 50.1 | > 100 | ≥ 10 | – | – | –
3 | CO/C=C(/C(=O)OC)c1ccccc1COc1cccc(C(F)(F)F)n1 [Picoxystrobin] | – | – | – | – | 63 | 4.7 | 31.6 | log2FoldChange AARS (LUHMES cells [3]; 0.10 µM): -0.76 log2; log2FoldChange AASDHPPT (LUHMES cells [3]; 0.10 µM): 1.04 log2; log2FoldChange AATF (LUHMES cells [3]; 0.10 µM): -0.34 log2; log2FoldChange ABCA1 (LUHMES cells [3]; 0.10 µM): -0.73 log2; log2FoldChange ABCA6 (LUHMES cells [3]; 0.10 µM): 1.05 log2; EC25 KE4 (AO) Neurite toxicity (LUHMES cells [2]; [7]): 4.4 -log[M]
4 | Cc1occc1C(=O)Nc1ccccc1 [Fenfuram] | > 100 | > 100 | > 100 | > 100 | – | – | – | –
5 | CO/C=C(/C(=O)OC)c1ccccc1Oc1cc(Oc2ccccc2C#N)ncn1 [Azoxystrobin] | – | – | – | – | 10.0 | 9.8 | 4.0 | Ratios of EC25 KE4/KE3 proteasomal (proteasome): 0.9; log2FoldChange AARS (LUHMES cells [3]; 0.10 µM): -0.16 log2; log2FoldChange AASDHPPT (LUHMES cells [3]; 0.10 µM): 0.0857 log2; log2FoldChange AATF (LUHMES cells [3]; 0.10 µM): -0.0134 log2; log2FoldChange ABCA1 (LUHMES cells [3]; 0.10 µM): -0.16 log2; log2FoldChange ABCA6 (LUHMES cells [3]; 0.10 µM): -1.97 log2; EC25 KE4 (AO) Neurite toxicity (LUHMES cells [2]; [7]): 4.5 -log[M]
6 | CC(C)(C)c1ccc(CSc2cnn(C(C)(C)C)c(=O)c2Cl)cc1 [Pyridaben] | 79.4 | 63.1 | > 100 | > 100 | 40–60 | – | ≥ 800 | –
7 | CCc1nn(C)c(C(=O)NCc2ccc(C(C)(C)C)cc2)c1Cl [Tebufenpyrad] | 12.6 | 20 | 20 | > 100 | 126 | 5.6 | 1000 | EC25 (SH-SY5Y cells; Homo sapiens, SH-SY5Y differentiated 6 days, treated 24 h, rhodamine-123, read-out: pEC25 MMP (concentration where MMP was reduced by 25%) (converted)): 3.16 µM; log2FoldChange AARS (LUHMES cells [3]; 0.09 µM): -0.0653 log2; log2FoldChange AASDHPPT (LUHMES cells [3]; 0.09 µM): 0.0475 log2; log2FoldChange AATF (LUHMES cells [3]; 0.09 µM): 0.19 log2; log2FoldChange ABCA1 (LUHMES cells [3]; 0.09 µM): -0.37 log2; log2FoldChange ABCA6 (LUHMES cells [3]; 0.09 µM): 0.84 log2; EC25 (LUHMES cells [2]; NeuriTox test, neurite outgrowth impairment, LUHMES 24 h, read-out: EC25 KE4 (AO) Neurite toxicity (converted)): 20 µM
8 | CO/N=C(/C(=O)OC)c1ccccc1COc1ccccc1C [Kresoxim-methyl] | 31.6 | 50.1 | 39.8 | > 100 | ≥ 10 | – | – | –
9 | CC(C)(C)c1ccc(CCOc2ncnc3ccccc23)cc1 [Fenazaquin] | 10 | 10 | 15.8 | > 100 | 40–60 | – | ≥ 800 | –
10 | CO/N=C(/C(=O)OC)c1ccccc1CO/N=C(\C)c1cccc(C(F)(F)F)c1 [Trifloxistrobin] | – | – | – | – | ≥ 10 | – | – | –
